Experimental data reported in patent US6440421B1, “Treatment of bone disorders with adrenomedullin or adrenomedullin agonists” (Auchkland Uniservices Limited, priority 1996, dated 2002).
No end group written: not given here.

Key:
[1] = tested on: fetal rat osteoblast-like cells; assay: Osteoblast proliferation assay, cell counts; assay type: cell-based; settings: for cell number relative to control osteoblasts: primary cultures of osteoblasts, final concentration of 1 nm
Method: (§1) Osteoblasts were isolated by collagenase digestion from 20-day fetal rat calvariae. The calvariae were then treated twice with phosphate buffered saline (PBS; Gibco, Grand Island, N.Y.) containing 3 Mm […] (EDTA; Sigma Chemical Co., St. Louis, Mo.) for 15 minutes at 37° C. in a shaking water bath. After washing once in PBS, 3 ml of 1 mg/ml collagenase (Sigma Chemical Co.) was added to the calvariae for 10 minutes at 37° C. After discarding the supernatant, the calvariae were treated twice with 2 mg/ml collagenase (30 mins, 37° C.). The supernatants were then centrifuged and the cells washed in Dulbecco's Modified Eagle's Medium (DMEM; Gibco Labs, Grand Island, N.Y.) with 10% fetal calf serum (FCS), suspended in further DMEM/10% FCS, and placed in […] flasks. The cells were incubated under 5% CO2 and 95% air at 37° C.
(§2) Confluence was reached by 5-6 days, at which time the cells were subcultured. After trypsinization using trypsin-EDTA (0.05%/0.53 […]; Gibco Labs, Grand Island, N.Y.), the cells were rinsed in Minimal Essential Medium (MEM; Gibco Labs) with 10% FCS and resuspended in MEM with 5% FCS, then seeded (10^5 cells/ml) in 24-well plates (0.5 ml cell suspension per well, i.e., 5×10^4 cells/well)
(§3) Cell proliferation studies (i.e., cell counts and thymidine incorporation) were performed both in actively-growing and growth-arrested cell populations. To produce actively-growing cells, subconfluent populations (24 hrs after subculturing) were changed to fresh MEM which contained 1% FCS and the test compounds. To produce growth-arrested cells, subconfluent populations were changed to serum-free medium with 0.1% bovine serum albumin plus the test compounds.
The effect of adrenomedullin on proliferation of fetal rat osteoblast-like cells was first assessed by the measurement of cell numbers. Cell counts were analyzed at 6, 24, and 48 hours after addition of the test compound or vehicle. The cell numbers were determined after removing cells from the wells by exposure to trypsin/EDTA (0.05%/0.53 Mm) for 5 minutes at 37° C. Counting was performed in a hemocytometer chamber. Results were expressed per well. […] This stimulation was maintained for at least 48 hours.

[2] = tested on: fetal rat osteoblast-like cells; assay: DNA synthesis, [3H]-thymidine incorporation into osteoblasts; assay type: cell-based; settings: for thymidine incorporation: primary cultures of osteoblasts, 1 nm; for [3H]-thymidine incorporation: 10^−10M, 24 hours
Method: as §1, §2, §3
The effect of adrenomedullin on DNA synthesis in osteoblasts was then assessed by the measurement of [^3H]-thymidine incorporation into isolated fetal rat osteoblast-like cells. [^3H]-thymidine incorporation into actively-growing and growth-arrested cells was assessed by pulsing the cells with [^3H]-thymidine (1 μCi/ml) (Amersham, Arlington Heights, Ill.) two hours before the end of the experimental incubation. The experiment was terminated at 6, 24, or 48 hours by washing the cells in MEM with cold thymidine followed by 10% trichloroacetic acid. The precipitate was washed twice with ethanol:ether (3:1), and the wells were desiccated at room temperature. The residue was redissolved in 0.5 M KOH at 85° C. for 30 mins, neutralized with 1 M Hcl, and an aliquot counted for radioactivity. Results were expressed as cpm per well.

neonatal mouse calvariae [3] = assay: Bone organ culture, bone resorption (45Ca release); assay type: cell-based; settings: 48 hours, concentrations of 10−7 M to 10^−10 M
Method: (§4) Bone resorption studies were carried out in neonatal mouse calvariae as previously described (Reid, et al., Endocrinology 126:1416-1420 (1990)). Mice were injected subcutaneously with 5 μCi ^45Ca (Amersham) at 2 days of age, and hemi-calvariae were dissected out 4 days later. Hemi-calvariae were pre-incubated for 24 hours in medium 199 (Gibco BRL, Grand Island, N.Y.) with 0.1% bovine serum albumin, then changed to fresh medium containing adrenomedullin or control vehicle. Incubation was continued for a further 48 hours. In the last 4 hours of incubation [^3H]-thymidine was incorporated into the organ cultures as described previously (Lowe, et al., Calif. Tissue Int. 49-394-397 (1991)). There were 5-7 calvariae in each group.

neonatal mouse calvariae [4] = assay: Bone organ culture, [3H]-thymidine incorporation; assay type: cell-based; settings: 48 hours, 10−7 M to 10^−10 M, same experiments
Method: as §4

adult mouse calvariae = assay: Local effects on bone histology in vivo, histomorphometry of hemicalvariae
Method: The local effects of adrenomedullin on bone histology in vivo were assessed in adult mice using a previously described model (Cornish et al., Endocrinology 132:1359-1366, 1993). Sexually mature male ARC Swiss Webster mice aged between 40 and 50 days and weighing […] were given injections (25 μl) over the periosteum of the right hemicalvariae for 5 consecutive days. […] The animals were maintained on a low calcium diet (0.1%) from 5 days prior to the first injection. […] These doses were chosen based on experience with other bone-active peptides in this model. Animals in the control group (n=16) were injected with vehicle (water) only. All animals were sacrificed 1 week following the last injection. The study had the approval of the local institutional review board.
The calvariae were dissected free of soft tissue, and gross morphology was assessed by examination of the intact calvariae under a dissection microscope. Bone tissue was fixed in 10% phosphate-buffered formalin, dehydrated in a graded series of ethanol solutions and embedded undecalcified in methyl methacrylate resin. Sections (4 μm thick) were cut on a Leitz rotary microtome (Leica Instruments, Nussloch, Germany) using a tungsten-carbide knife, then mounted on gelatin-coated slides and air-dried. The sections were stained with a Goldner tri-chrome stain and examined using an Olympus BX 50 microscope (Olympus Optical Co Ltd, Tokyo, Japan) which was attached to an Osteomeasure Image Analyzer (Osteometrics Inc., Atlanta, Ga.). Histomorphometric analyzes were made of three adjacent fields (using a 20× objective) in each hemicalvaria.
The parameters assessed are as defined by the American Society for Bone and Mineral Research (Parfitt et al. J. Bone Miner. Res. 2:595-610, (1987)), and are expressed per mm of calvarial length. Osteoblasts were defined as cells immediately adjacent to osteoid. Osteoclast numbers included only multinucleated cells. The various surface estimates were based on measurements of both periosteal and intramembranous surfaces: those eroded by osteoclasts (eroded perimeter), those immediately adjacent to osteoclasts (osteoclast perimeter), and those immediately adjacent to osteoblasts (osteoblast perimeter). The precision of these histomorphometric measurements in these studies (expressed as coefficients of variation of paired. measurements) are as follows: mineralized bone area 1.3%, osteoid area 6.9%, osteoblast perimeter 6.8%, osteoblast number 1.7%, eroded perimeter 6.7%, osteoclast perimeter 7.9%, osteoclast number <1.0%, and calvarial length 0.2%. All measurements were made by one operator who was blinded to the treatment group of each bone.
In the in vivo experiment, the primary end-point for each histomorphometric index was the determination of whether it was different in the injected right hemicalvaria from the contralateral, uninjected bone of the same animal. The absolute values of each histomorphometric index are presented for the injected and uninjected hemicalvariae by treatment group in Tables 1-3. […] Tables 1-3. Effects of Adrenomedullin on Histomorphometric Indices in Adult Mouse Calvariae in vivo*

[5] = Injected hemicalvaria, Adrenomedullin 4 × 10^−10 mol, mean, per mm of calvarial length
[6] = Uninjected hemicalvaria, Adrenomedullin 4 × 10^−10 mol, mean, per mm of calvarial length
[7] = in the presence of adrenomedullin

Substance: ADM(28-40) (HQIYQFTDKDKDN; listed as Homo sapiens) [adrenomedullin fragment, residues 28-40]
- cell number relative to control osteoblasts [1]: statistically significant increase
- thymidine incorporation [2]: increased

Substance: ADM(32-52) (QFTDKDKDNVAPRSKISPQGY; listed as Homo sapiens) [adrenomedullin fragment, residues 32-52]
- cell number relative to control osteoblasts [1]: statistically significant increase
- thymidine incorporation [2]: increased

Substance: adrenomedullin
- duration for which stimulation of cell number was maintained ([1]; 1% FCS, actively-growing cells): at least 48 hours
- adrenomedullin concentration at which a significant increase in cell number was observed ([1]; 24 hours, 1% FCS, actively-growing cells): ≥ 10^−12 M
- increase in actively-growing osteoblasts (cell number) ([1]; 24 hours, medium containing 1% FCS, actively-growing cells): dose-dependent increase
- [3H]-thymidine incorporation ([2]; actively-growing cells): significantly stimulated
- [3H]-thymidine incorporation ([2]; growth-arrested cells): significantly stimulated
- 45Ca release from prelabeled calvariae (neonatal mouse calvariae [3]): no significant change
- [3H]-thymidine incorporation (neonatal mouse calvariae [4]): significantly increased
- Bone Area (adult mouse calvariae; [5]): 0.128
- Eroded Pm (adult mouse calvariae; [5]): 0.67
- Number of Obs (adult mouse calvariae; [5]): 105
- Number of Ocs (adult mouse calvariae; [5]): 5.0
- Ob Perimeter (adult mouse calvariae; [5]): 0.33
- Oc Pm (adult mouse calvariae; [5]): 0.15
- Osteoid Area (adult mouse calvariae; [5]): 0.0032
- Periosteal Area (adult mouse calvariae; [5]): 0.012
- Periosteal Area (adult mouse calvariae; P=0.54): not changed
- Bone Area (adult mouse calvariae; [6]): 0.114
- Eroded Pm (adult mouse calvariae; [6]): 0.67
- Number of Obs (adult mouse calvariae; [6]): 61
- Number of Ocs (adult mouse calvariae; [6]): 4.4
- Ob Perimeter (adult mouse calvariae; [6]): 0.56
- Oc Pm (adult mouse calvariae; [6]): 0.12
- Osteoid Area (adult mouse calvariae; [6]): 0.0012
- Periosteal Area (adult mouse calvariae; [6]): 0.011
- indices of osteoblast activity, ratio of injected to uninjected halves of each calvaria (adult mouse calvariae; either dose of adrenomedullin, 5 daily local injections): two- to three-fold increases
- increase of mineralized bone area (adult mouse calvariae; higher dose of adrenomedullin): 13.6%
- eroded perimeter, upward trend, ratio of injected to uninjected (adult mouse calvariae; [7]): significant
- resorption indices, ratio of injected to uninjected (adult mouse calvariae; [7]): slight upward trends

Substance: adrenomedullin(27-52) (AHQIYQFTDKDKDNVAPRSKISPQGY-NH2; listed as Homo sapiens) [fragment of adrenomedullin, residues 27-52, carboxyl terminal amidated]
- cell number relative to control osteoblasts [1]: statistically significant increase
- thymidine incorporation [2]: increased
